Measured values published in patent US20100324087A1, “COMBINED USE OF ANGIOGENESIS INHIBITOR AND TAXANE” (EISAI R&D MANAGEMENT CO., LTD., priority 2008, published 2010).

System: Human non-small-cell lung cancer cell line A549
Assay: Combination use of E7080 and docetaxel in subcutaneous transplanted models (in vivo) of A549
Details: alone, A549 subcutaneous transplant, nude mouse
Protocol: Human non-small-cell lung cancer cell line A549 (purchased from Dainippon Sumitomo Pharma Co., Ltd) was cultured in RPMI1640 (containing 10% FBS) in a 5% carbon dioxide gas incubator at 37° C. to about 80% confluence, and then the cells were treated with trypsin-EDTA and then collected. A 1×10^8 cells/mL suspension was prepared with a phosphate buffer, which was further added with an equivalent amount of matrigel matrix to give a 5×10^7 cells/mL suspension, and each 0.1 mL of the resulting cell suspension was subcutaneously transplanted to a nude mouse at the side of its body. Fourteen days after the transplantation, 4-(3-chloro-4-(cyclopropylaminocarbonyl)aminophenoxy)-7-methoxy-6-quinolinecarboxamide (hereinafter, also referred to as “E7080”) was orally administered for 10 or 30 mg/kg, once a day for four weeks, while 15 mg/kg of docetaxel was intravenously administered alone or in combination every four days for three times. The major and minor axes of tumors were measured with Digimatic caliper (Mitsutoyo Corporation), and tumor volumes and relative tumor volumes were calculated according to the following formulae:
Tumor Volume (TV)=Major axis of tumor (mm)×(Minor axis of tumor)^2 (mm^2)/2
Relative Tumor Volume (RTV)=Tumor volume on measurement day/Tumor volume on the first administration day.

For COc1cc2nccc(Oc3ccc(NC(=O)NC4CC4)c(Cl)c3)c2cc1C(N)=O [E7080, 4-(3-chloro-4-(cyclopropylaminocarbonyl)aminophenoxy)-7-methoxy-6-quinolinecarboxamide], the “Relative tumor volume on Day 29, Average ± standard deviation” value (E7080 10 mg/kg orally once a day for four weeks) was 1.47 ± 0.16 and the “Relative tumor volume on Day 29, Average ± standard deviation” value (E7080 30 mg/kg orally once a day for four weeks) was 1.14 ± 0.30.

In the case of CC(=O)O[C@@]12CO[C@@H]1C[C@H](O)[C@@]1(C)C(=O)[C@H](O)C3=C(C)[C@@H](OC(=O)[C@H](O)[C@@H](NC(=O)OC(C)(C)C)c4ccccc4)C[C@@](O)([C@@H](OC(=O)c4ccccc4)[C@H]21)C3(C)C [Docetaxel, docetaxel, reference compound], the “Relative tumor volume on Day 29, Average ± standard deviation” value (Docetaxel 15 mg/kg intravenously every four days for three times) is reported as 1.48 ± 0.29.
